Assay results published in PubChem BioAssay AID1996.
≈ marks a conversion by molar mass, not a printed value.

Settings: buffer; pH 7.4; 200.0 µM
Work on O=C(NCCCn1ccnc1)c1cccc(Br)c1 yielded a solubility kinetic of 46.2 µg/mL (≈ 150 µM). Cc1ccccc1-c1nnc(SCC(=O)Nc2cccnc2Cl)o1 gave a solubility kinetic of over 54.1 µg/mL. Cc1cccc(N2CCc3c2nc2ccc(Br)cc2c3N)c1.Cl showed a solubility kinetic of 0.6 µg/mL. Work on COCCNC(=S)Nc1ccccc1Cc1ccccc1 yielded a solubility kinetic of 13.7 µg/mL (≈ 45.6 µM). In the case of NC(=O)c1cc(-c2csc(NCCc3ccccc3)n2)ccc1O, the solubility kinetic is reported as 8 µg/mL (≈ 23.6 µM). O=C(Cc1ccc(F)cc1)NC(Cc1c[nH]c2ccccc12)C(=O)O (centres undefined) gave a solubility kinetic of 46.6 µg/mL (≈ 137 µM). CC(NC(=O)CC1CCCCC1)c1ccccc1 (centres undefined) showed a solubility kinetic of over 36.8 µg/mL. For COCCn1c(C)cc(C(=O)COC(=O)c2ccc([N+](=O)[O-])o2)c1C, the solubility kinetic was over 52.5 µg/mL. Work on CCOC(=O)N1CCN(C(=O)c2ccc(S(=O)(=O)Nc3ccccc3)cc2)CC1 yielded a solubility kinetic of over 62.6 µg/mL. In the case of O=C(NCc1cccc(C(F)(F)F)c1)c1ccc(=O)[nH]c1, the solubility kinetic is reported as over 44.4 µg/mL. Cc1ccccc1-n1nc2c(c1NC(=O)CC(C)C)CS(=O)C2 (centres undefined) showed a solubility kinetic of over 49.7 µg/mL. Work on COC(=O)c1ccc(NC(=O)c2ccc3nc(C)sc3c2)cc1 yielded a solubility kinetic of under 0.3 µg/mL. Molecule O=c1[nH]c(/C=C/c2ccc([N+](=O)[O-])cc2)c([N+](=O)[O-])c(=O)[nH]1 has a solubility kinetic of 24.9 µg/mL (≈ 81.8 µM). Work on O=C(Nc1ccccc1Br)C1CCN(S(=O)(=O)c2cccs2)CC1 yielded a solubility kinetic of 7.8 µg/mL (≈ 18.2 µM). CC(NS(=O)(=O)c1ccc(Cl)c(Cl)c1)C(=O)Nc1cccnc1 (centres undefined) gave a solubility kinetic of over 56.1 µg/mL. Work on CCc1c(C)nc(N2CCN(c3ccc(Cl)cc3)CC2)[nH]c1=O yielded a solubility kinetic of 1.1 µg/mL (≈ 3.3 µM). With C=C(C)[C@@H]1CC=C(CN2CCN(Cc3ccccc3)CC2)CC1 the solubility kinetic was 9.9 µg/mL (≈ 31.9 µM). O=C(COC(=O)c1cccc2ccccc12)NCC1CCCO1 (centres undefined) showed a solubility kinetic of over 47 µg/mL. Work on O=C(c1ccc(Cn2cc([N+](=O)[O-])cn2)o1)N1CCCCCC1 yielded a solubility kinetic of over 47.7 µg/mL. In the case of CCCOC(=O)Cn1cnc2scc(-c3ccc(C)cc3)c2c1=O, the solubility kinetic is reported as 17.2 µg/mL (≈ 50.2 µM). For O=C(NCC(=O)N1CCN(c2ncccn2)CC1)c1ccccc1F, the solubility kinetic was over 51.5 µg/mL. Work on CN1CCSc2ccc(C(=O)Nc3ccc(Cl)cc3)cc21 yielded a solubility kinetic of 0.5 µg/mL (≈ 1.57 µM). With O=C(CN1CCCCCCC1)Nc1cccc(Cl)c1Cl the solubility kinetic was under 0.3 µg/mL. Molecule O=C(NCc1ccccc1)c1cc[n+]([O-])cc1 has a solubility kinetic of over 34.2 µg/mL. CC(C)C(=O)Nc1cc(-c2nc3ncccc3o2)ccc1Cl gave a solubility kinetic of 6 µg/mL (≈ 19 µM). CCC(C)n1c(O)c(C=NCC2CCCO2)c(=O)[nH]c1=S (centres undefined) showed a solubility kinetic of 38.3 µg/mL (≈ 123 µM). With O=S(=O)(NCCOc1ccccc1F)c1ccc(Cl)cc1F the solubility kinetic was 5.7 µg/mL (≈ 16.4 µM). In the case of Cc1nn(CC(=O)NCCc2ccccc2)c(=O)c2cccn12, the solubility kinetic is reported as over 46.6 µg/mL. Work on CC(=O)NC1(c2ccccc2)CCN(CC(=O)N2CCC(C)CC2)CC1 yielded a solubility kinetic of over 53.6 µg/mL. Molecule COc1ccc(N2CCN(C(=O)c3cc(C)oc3C)CC2)cc1 has a solubility kinetic of 42.2 µg/mL (≈ 134 µM). c1ccc(CCCN2CCN(c3ccccn3)CC2)cc1 showed a solubility kinetic of 26.8 µg/mL (≈ 95.2 µM). For Cc1ccnc2c1ccc1ccccc12, the solubility kinetic was under 0.4 µg/mL. With COC(=O)c1sc(NC(=O)c2ccncc2)nc1C the solubility kinetic was 27.3 µg/mL (≈ 98.4 µM). Molecule CC(Oc1ccc(Br)cc1Br)C(=O)Nc1cccnc1Cl (centres undefined) has a solubility kinetic of under 0.5 µg/mL. In the case of O=C(N/N=C/c1ccccc1O)c1ccncc1, the solubility kinetic is reported as over 36.2 µg/mL. In the case of CN1C(=O)c2ccccc2N(C)C1c1ccccc1Cl (centres undefined), the solubility kinetic is reported as over 43 µg/mL. In the case of CCc1onc(C)c1C(=O)Nc1ccc2c(c1)OCO2, the solubility kinetic is reported as over 41.1 µg/mL. Molecule COc1cc(S(=O)(=O)NCc2ccncc2)c(OC)cc1C has a solubility kinetic of over 48.4 µg/mL. CCn1ccnc1CNC(=O)c1cc(COc2ccc(F)cc2F)on1 showed a solubility kinetic of 49.3 µg/mL (≈ 136 µM). With C=CCSc1nsc(NC(=O)Nc2cccc(C(C)=O)c2)n1 the solubility kinetic was 1.9 µg/mL (≈ 5.68 µM). For CC(=O)c1cccc(Nc2cc(C)nc3c(C)cccc23)c1.Cl, the solubility kinetic was over 49 µg/mL. Molecule CC(=O)Nc1ccc(-c2csc(Nc3cc(C)ccn3)n2)cc1 has a solubility kinetic of 0.4 µg/mL (≈ 1.23 µM). COc1ccc(CN2C(=O)CSCC2=O)cc1OC gave a solubility kinetic of over 42.2 µg/mL. With CC(C)(C)C(=O)Cn1ncc(N2CCOCC2)c(Cl)c1=O the solubility kinetic was over 47.1 µg/mL. In the case of COc1cc(OC)cc(C(=O)NCC(=O)OCC(=O)NC2CCCc3ccccc32)c1 (centres undefined), the solubility kinetic is reported as 58.5 µg/mL (≈ 137 µM). CCOP(=O)(c1ccc(N(C)C)cc1)C(O)c1ccncc1 (centres undefined) showed a solubility kinetic of over 48 µg/mL. With CC1CCC2(CC1)NC(=O)N(CC(=O)N1CCOCC1)C2=O (centres undefined) the solubility kinetic was over 46.4 µg/mL. With CN(CC(=O)Nc1cccc(F)c1)CC(=O)N(C)c1c(N)n(Cc2ccccc2)c(=O)[nH]c1=O the solubility kinetic was over 70.3 µg/mL. Cn1ncc(Cl)c1C(=O)Nc1ccc(CN2CCCCC2)cc1 showed a solubility kinetic of over 49.9 µg/mL. With Cc1cc(OC(F)F)ccc1NC(=S)NC1CCCC1 the solubility kinetic was over 45.1 µg/mL. CC(=O)c1cn(CC(=O)Nc2ccccc2Cl)c2ccccc12 showed a solubility kinetic of 1 µg/mL (≈ 3.06 µM). Work on Cc1ccc(NC(=S)Nc2cccc3cnccc23)cc1 yielded a solubility kinetic of 30 µg/mL (≈ 102 µM). NS(=O)(=O)c1ccc(NC(=O)c2ccc3c(c2)OCO3)cc1 showed a solubility kinetic of under 0.3 µg/mL. With CCC1(c2ccc(F)cc2)NC(=O)NC1=O (centres undefined) the solubility kinetic was 28.5 µg/mL (≈ 128 µM). For O=C(NNC(=S)NC(=O)c1ccc(F)cc1)c1ccncc1, the solubility kinetic was over 47.7 µg/mL. Molecule Cc1c(S(=O)(=O)NCc2ccccc2)c(=O)n(C)c(=O)n1C has a solubility kinetic of over 48.5 µg/mL. Molecule COc1ccc(NC(=O)CN2CCN(S(=O)(=O)N(C)C)CC2)cc1 has a solubility kinetic of over 53.5 µg/mL. With CC1CCN(CCn2c(=S)[nH]c3cc4c(cc3c2=O)OCO4)CC1 the solubility kinetic was 29.4 µg/mL (≈ 84.6 µM). O=Cc1c(NCc2ccc(Cl)cc2)c2ccccc2[nH]c1=O gave a solubility kinetic of 2.8 µg/mL (≈ 8.95 µM).
